# Measurements taken from PMC6254361, “The properties of Msh2–Msh6 ATP binding mutants suggest a signal amplification mechanism in DNA mismatch repair” (The Journal of Biological Chemistry, 2018).
# Target: T1, Msh2–Msh6 (Saccharomyces cerevisiae, UniProt P25847+Q03834)
# T1 sequence (P25847 1-964): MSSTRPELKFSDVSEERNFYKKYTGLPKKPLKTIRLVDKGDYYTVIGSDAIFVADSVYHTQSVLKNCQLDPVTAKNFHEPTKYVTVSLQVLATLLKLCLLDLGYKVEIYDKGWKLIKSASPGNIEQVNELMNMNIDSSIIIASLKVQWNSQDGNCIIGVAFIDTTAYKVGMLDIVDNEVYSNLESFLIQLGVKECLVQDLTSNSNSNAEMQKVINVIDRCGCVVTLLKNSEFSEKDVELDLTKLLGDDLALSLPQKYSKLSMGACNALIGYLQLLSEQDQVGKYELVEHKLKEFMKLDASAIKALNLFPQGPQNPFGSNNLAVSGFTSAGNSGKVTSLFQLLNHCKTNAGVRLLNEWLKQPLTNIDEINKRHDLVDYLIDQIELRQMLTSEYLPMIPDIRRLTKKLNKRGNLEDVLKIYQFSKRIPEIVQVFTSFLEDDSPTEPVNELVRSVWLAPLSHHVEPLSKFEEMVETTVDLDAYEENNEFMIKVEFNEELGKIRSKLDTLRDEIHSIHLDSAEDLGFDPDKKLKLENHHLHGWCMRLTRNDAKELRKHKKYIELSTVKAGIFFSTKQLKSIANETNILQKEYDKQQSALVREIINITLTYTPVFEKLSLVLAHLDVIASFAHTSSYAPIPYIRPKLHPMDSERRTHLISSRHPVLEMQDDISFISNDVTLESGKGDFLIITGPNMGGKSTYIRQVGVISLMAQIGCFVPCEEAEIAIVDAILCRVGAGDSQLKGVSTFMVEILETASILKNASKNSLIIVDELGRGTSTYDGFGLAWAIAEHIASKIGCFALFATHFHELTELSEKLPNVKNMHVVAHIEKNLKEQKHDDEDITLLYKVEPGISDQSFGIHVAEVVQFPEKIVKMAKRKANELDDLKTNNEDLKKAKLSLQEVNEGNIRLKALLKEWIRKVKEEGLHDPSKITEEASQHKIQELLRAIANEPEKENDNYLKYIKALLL
# T1 sequence (Q03834 1-1242): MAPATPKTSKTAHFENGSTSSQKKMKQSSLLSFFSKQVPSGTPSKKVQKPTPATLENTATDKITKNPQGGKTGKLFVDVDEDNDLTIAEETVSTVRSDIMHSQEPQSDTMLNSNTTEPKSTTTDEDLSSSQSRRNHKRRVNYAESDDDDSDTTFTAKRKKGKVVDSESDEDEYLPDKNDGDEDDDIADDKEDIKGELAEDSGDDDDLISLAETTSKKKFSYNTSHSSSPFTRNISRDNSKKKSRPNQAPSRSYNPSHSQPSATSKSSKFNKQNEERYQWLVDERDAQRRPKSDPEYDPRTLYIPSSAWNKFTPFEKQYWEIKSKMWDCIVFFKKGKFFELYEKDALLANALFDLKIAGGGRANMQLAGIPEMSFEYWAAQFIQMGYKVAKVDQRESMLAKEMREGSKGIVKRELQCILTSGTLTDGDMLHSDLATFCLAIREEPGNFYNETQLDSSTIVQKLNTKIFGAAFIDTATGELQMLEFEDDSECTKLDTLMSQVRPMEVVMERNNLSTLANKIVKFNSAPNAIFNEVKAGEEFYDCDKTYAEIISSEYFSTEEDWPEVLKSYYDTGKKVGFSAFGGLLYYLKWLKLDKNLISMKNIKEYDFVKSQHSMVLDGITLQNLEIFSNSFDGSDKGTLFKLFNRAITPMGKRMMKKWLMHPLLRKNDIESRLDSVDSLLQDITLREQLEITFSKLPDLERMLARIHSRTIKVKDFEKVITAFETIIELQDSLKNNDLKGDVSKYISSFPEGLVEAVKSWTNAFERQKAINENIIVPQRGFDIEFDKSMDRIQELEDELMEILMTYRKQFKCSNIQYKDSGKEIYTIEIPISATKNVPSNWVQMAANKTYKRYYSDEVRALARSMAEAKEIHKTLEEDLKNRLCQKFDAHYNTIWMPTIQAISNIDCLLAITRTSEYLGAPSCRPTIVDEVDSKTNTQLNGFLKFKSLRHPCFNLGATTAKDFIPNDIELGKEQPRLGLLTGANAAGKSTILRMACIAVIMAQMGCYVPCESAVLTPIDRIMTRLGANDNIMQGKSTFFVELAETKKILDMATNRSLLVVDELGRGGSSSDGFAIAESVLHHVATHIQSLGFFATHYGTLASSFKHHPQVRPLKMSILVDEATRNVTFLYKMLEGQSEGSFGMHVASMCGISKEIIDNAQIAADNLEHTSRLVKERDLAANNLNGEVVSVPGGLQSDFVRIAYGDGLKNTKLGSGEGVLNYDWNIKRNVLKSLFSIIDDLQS
# Experiment: UV cross-linking of [γ-32P]ATP, SDS-PAGE, phosphorimaging
# Assay type: binding
# Conditions: labelled compound; reference complex; no Mg2+, EDTA, pH 8, on ice; Msh2 site at 60 μM ATP, Msh6 site at 1 μM ATP
smiles,measurement,value
Nc1ncnc2c1ncn2[C@@H]1O[C@H](COP(=O)(O)OP(=O)(O)OP(=O)(O)O)[C@@H](O)[C@H]1O [ATP],"UV cross-linking of [γ-32P]ATP, SDS-PAGE, phosphorimaging",ATP binding at these concentrations was compared with WT Msh2–Msh6
